According to US20150306096A1, “8'-HYDROXY-DIHYDROERGOTAMINE COMPOUNDS AND COMPOSITIONS” (MAP Pharmaceuticals, Inc., priority 2012, published 2015):

Tests used:
OP2 (κ) = target: T1, OP2 (κ) (Homo sapiens, UniProt P41145); assay: GTPγS assay; format: biochemical; conditions: antagonism
T1 construct: expressed in transfected cells; host or cells: CHO-K1 (membrane extracts)
Method: (§1) Additional receptor agonist/agonist activity assessments were performed using the 8′-OH DHE test compound. Table 12 contains a summary of the cell lines (CHO-K1/HEK293 transfected with relevant human receptor) and the assays performed to detect any agonist or antagonist activity.
Reagents used were the following: Assay buffer (20 mM HEPES, pH 7.4; 100 mM NaCl; 10 mg/mL saponin; 30 mM MgCl2); Membranes (recombinant human receptor membrane extracts were thawed on ice and diluted in assay buffer to give […] (10 μgμL) and kept on ice); GDP (diluted in assay buffer to give 30 μM solution (3 μM final concentration); beads (PVT-WGA (Amersham, RPNQ001), diluted in assay buffer at 25 mg/mL (0.25 mg/10 μL)); GTPγ^35S (Perkin Elmer, NEG030X), diluted in assay buffer to give 0.1 nM (final concentration); and ligand (agonist/antagonist diluted in assay buffer).
Membranes were mixed with GDP (1:1) and incubated for at least 15 minutes on ice. In parallel, GTPγ^35S was mixed with the beads (1:1) just before starting the reaction. […] The plates were then centrifuged for 10 minutes at 2,000 rpm and incubated at RT for 1 hour and counted for 1 min/well with a Perkin Elmer TopCount reader.

[1] = tested on: Cholecystokinin (CCK1/CCK2); assay: Aequorin assay; format: cell-based, human; conditions: CCK receptors
Method: as §1
(§2) Aequorin assays were conducted to monitor activity for 8′-OH DHE against the receptors indicated in Table 12 above (except for mGlu3 and mGlu5). CHO-K1 cells co-expressing mitochondrial apoaequorin and the recombinant human receptor of interest were grown to mid-log phase in culture media without antibiotics and then detached with PBS-EDTA, centrifuged and resuspended in assay buffer (DMEMHAM's F12 with HEPES, without phenol red+0.1% BSA, protease free) at a concentration of 1×10^6 cell/mL. Cells were incubated at RT for at least 4 hours with coelenterazine h. Reference agonistant/agonist was tested to evaluate the performance of the assay and to determine EC50/IC50.
(§3) 50 μL of the cell suspension was mixed with 50 μL of test or reference agonist in a 96-well plate. The resulting emission of light was recorded using Hamamatsu Functional Drug Screening System 6000 (FDSS 6000) luminometer. For antagonist testing, 100 μL of the reference agonist at its EC80 was injected on the mix of cells and test compound, following an incubation of 15 minutes after the first injection. The resulting emission of light was recorded using the FDSS 6000 luminometer. To standardize the emission of recorded light (and determine of the ‘100% signal’) across plates and across different experiments, some wells contained 100 μM digitonin or a saturating concentration of ATP (20 μM).

Orexin (OX1/OX2) = assay: Aequorin assay; format: cell-based, human; conditions: Orexin receptors
Method: as §1, §2, §3

T1 sequence (P41145 whole entry): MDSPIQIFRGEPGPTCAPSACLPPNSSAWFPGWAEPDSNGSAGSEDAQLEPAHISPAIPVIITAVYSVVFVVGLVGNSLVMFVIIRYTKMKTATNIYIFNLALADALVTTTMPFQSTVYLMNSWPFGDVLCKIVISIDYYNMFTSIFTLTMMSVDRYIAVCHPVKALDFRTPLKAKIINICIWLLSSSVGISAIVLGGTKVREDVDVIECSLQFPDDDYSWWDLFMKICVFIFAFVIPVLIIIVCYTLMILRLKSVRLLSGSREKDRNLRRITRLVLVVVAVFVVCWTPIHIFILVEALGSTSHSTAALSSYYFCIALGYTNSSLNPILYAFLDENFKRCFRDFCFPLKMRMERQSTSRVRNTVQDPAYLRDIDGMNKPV

## CN1C[C@H](C(=O)N[C@]2(C)O[C@@]3(O)[C@@H]4CCC(O)N4C(=O)[C@H](Cc4ccccc4)N3C2=O)C[C@@H]2c3cccc4[nH]cc(c34)C[C@H]21 (stereo partly drawn) [8′-OH DHE, 8′-Hydroxy-Dihydroergotamine]
OP2 (κ)
  IC50: > 1000 nM
[1]
  Activity (Agonism: EC50; Antagonism: IC50): Inactive
Orexin (OX1/OX2)
  Activity (Agonism: EC50; Antagonism: IC50): Inactive
